According to ChEMBL document CHEMBL1201862, “PubChem BioAssay data set” (2004):
The source made the active and inactive calls.

Columns and labels:
[1] = luciferase reporter signal suppression in cells – H4 neuroglioma cells, luminescence, dose response (AID 1990); format: functional, cell-based
[2] = luciferase reporter signal reduction – luminescence, H4-C neuroglioblastoma cells, dose response (AID 2458); format: functional, cell-based;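 note: H4 neuroglioblastoma cells stably carrying a luciferase reporter gene fusion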
[3] = biological target: T1, Luciferin 4-monooxygenase (Photinus pyralis, UniProt P08659); experiment: Counter Screen for Luciferase-based Assay Positives. [Related pubchem assays: 620, 618, 411 ]
HEK293 [4] = experiment: PMA/Ionomycin induced NF-kB luciferase assay in 293- NF-kB-Luc stable cells. [Related pubchem assays: 1299, 1270, 1295, 1375, 1287, 1281, 1293, 1291, 1289, 1280, 465, 1364, 1282, 1372, 1365, 1370, 1367, 1366, 1269, 1373, 1292, 1290, 1302, 1371, 1283, 1271, 1294, 1374, 1368, 1369 ]; format: functional, cell-based; details: Homo sapiens
[5] = biological target: T1, Luciferin 4-monooxygenase; experiment: In vitro luciferase assay using purified luciferase. [Related pubchem assays: 1299, 1270, 1295, 1375, 1287, 1281, 1293, 1291, 1289, 1280, 465, 1364, 1282, 1372, 1365, 1370, 1367, 1366, 1266, 1373, 1292, 1290, 1302, 1371, 1283, 1271, 1294, 1374, 1368, 1369 ]
cells = format: functional, cell-based
[6] = alpha-synuclein stem-loop luciferase translation blockers – H4 neuroglioma cells, luminescence, confirmation (AID 1988); format: functional, cell-based
[7] = Luminescence-based counterscreen assay for KLF5 inhibitors: dose response cell-based high throughput screening assay to identify cytotoxic compounds using the IEC-6 intestinal epithelial cell line. [Related pubchem assays: 1700 (Primary screen.), 1834 (Confirmation screen.), 1858 (Summary AID.), 1905 (Counterscreen.)]; format: functional
HT-1080 = experiment: HT1080 cell viability loss – fluorescence readout (AID 620); format: functional, cell-based; details: Homo sapiens
HEK293 [8] = experiment: Cytotoxicity assay in HEK293 cells. [Related pubchem assays (depositor defined):AID1266, AID1269, AID1270, AID1271, AID1280, AID1281, AID1282, AID1283, AID1287, AID1289, AID1290, AID1291, AID1292, AID1293, AID1294, AID1295, AID1299, AID1302, AID1364, AID1365, AID1366, AID1367, AID1369, AID1370, AID1371, AID1372, AID1373, AID1374, AID1375, AID1384 …; format: functional, cell-based; details: Homo sapiens
[9] = alpha-synuclein stem-loop translation blockers – luminescence, H4 neuroglioblastoma cells, dose confirmation, confirmation (AID 2454); format: functional, cell-based;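 note: H4 neuroglioblastoma cells carrying an alpha-synuclein 5'UTR luciferase reporter; potency for inhibition of the luciferase signal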
HEK293 [10] = experiment: TNF Induced NF-kB Luciferase in 293-NF-kB-Luc Stable Cells. [Related pubchem assays: 1266, 1299, 1269, 1373, 1292, 1290, 1302, 1371, 1283, 1270, 1295, 1271, 1375, 1294, 1374, 1281, 1293, 1291, 1289, 1280, 465, 1368, 1364, 1282, 1372, 1365, 1369, 1370, 1367, 1366 ]; format: functional, cell-based; details: Homo sapiens
[11] = HEK-293T cell viability reduction – luminescence, B-cell screen hits, cytotoxicity control for BCR NF-kB inhibitor project, dose response (AID 489021); format: functional, cell-based;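 note: HEK-293T cells carrying an NF-kB luciferase reporter; cells exposed to compound for about 14 hours before viability readout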
HEK293 [12] = experiment: EBV LMP1 TES2 canonical NF-kB signalling blockers – cell-based, HEK293, luciferase, cherry-pick, dose response (AID 588343); format: functional; details: Homo sapiens
HEK293 [13] = experiment: HEK293T cell viability loss, resazurin readout – resazurin fluorescence, cytotoxicity control for NF-kB activator project, SAR follow-up (AID 493251); format: functional, cell-based; details: Homo sapiens
Jurkat = experiment: SAR Analysis of small molecule inhibitors of T-cell specific antigen receptor-induced NF-kB activation in a Jurkat cell line using a luminescence assay - Set 2. [Related pubchem assays (depositor defined):AID435003, AID435012, AID465]; format: functional, cell-based; details: Homo sapiens
HEK293 [14] = experiment: SAR Analysis of small molecule inhibitors of T-cell specific antigen receptor-induced NF-kB activation in a HEK-293T cell line using a luminescence assay - Set 2. [Related pubchem assays (depositor defined):AID435003, AID435012, AID489026]; format: functional, cell-based; details: Homo sapiens
[15] = blockers of HIV-1 envelope-mediated cell-cell fusion – cherry-pick, dose response (AID 652057); format: functional, cell-based
[16] = blockers of HIV-1 ZM109 envelope-driven cell-cell fusion – HeLa effector, CEM target cells, luciferase, cherry-pick, dose response (AID 652058); format: functional, cell-based;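 note: luciferase signal from HIV-1 Env mediated cell-cell fusion of effector and target cells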
[17] = off-target signal loss in HeLa-CEM21 co-culture – HeLa F-luc CTL cells, cherry-picked, counter-screen for HIV-1 Env fusion inhibitor project, dose response (AID 652040); format: functional, cell-based;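 note: potency for signal decrease marking cytotoxic or nonspecific inhibition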
[18] = HIV-1 AD8 envelope cell-cell fusion blockers – cherry-pick, dose response (AID 652062); format: functional, cell-based;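 note: luciferase signal from cell-cell fusion driven by HIV-1 clade B AD8 Env; potency is for inhibitors of fusion seen as a drop in luminescence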
[19] = biological target: T2, Sentrin-specific protease 8 (Homo sapiens, UniProt Q96LD8); experiment: inhibition of human SENP8 cleavage activity – biochemical, luminescence, SAR follow-up (AID 504501); format: functional
T2 sequence (Q96LD8 whole entry): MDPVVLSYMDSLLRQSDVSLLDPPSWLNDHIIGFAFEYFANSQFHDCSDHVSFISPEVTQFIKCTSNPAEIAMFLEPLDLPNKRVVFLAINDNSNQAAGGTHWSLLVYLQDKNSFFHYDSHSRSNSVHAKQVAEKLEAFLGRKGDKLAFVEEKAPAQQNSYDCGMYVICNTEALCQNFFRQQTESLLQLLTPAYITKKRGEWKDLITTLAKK

Caspase-3 = biological target: T3, Caspase-3 (Homo sapiens, UniProt P42574); experiment: SAR Analysis of small molecule inhibitors of Sentrin-specific proteases (SENPs) using a Caspase-3 Selectivity assay. [Related pubchem assays (depositor defined):AID2540, AID2599, AID434973, AID489001]; format: functional
T3 sequence (P42574 whole entry): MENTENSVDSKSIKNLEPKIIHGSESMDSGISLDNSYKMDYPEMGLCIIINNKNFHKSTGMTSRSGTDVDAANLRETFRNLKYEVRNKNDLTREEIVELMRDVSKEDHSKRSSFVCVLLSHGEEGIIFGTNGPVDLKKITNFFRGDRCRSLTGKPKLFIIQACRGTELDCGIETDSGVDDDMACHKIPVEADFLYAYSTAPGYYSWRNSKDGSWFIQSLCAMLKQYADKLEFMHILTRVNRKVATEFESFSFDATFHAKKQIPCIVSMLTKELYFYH

[20] = biological target: T4, Sentrin-specific protease 6 (Homo sapiens, UniProt Q9GZR1); experiment: SAR Analysis of small molecule inhibitors of Sentrin-specific protease 6 (SENP6) using a Luminescent assay. [Related pubchem assays (depositor defined):AID2582, AID2599]; format: functional
T4 sequence (Q9GZR1 whole entry): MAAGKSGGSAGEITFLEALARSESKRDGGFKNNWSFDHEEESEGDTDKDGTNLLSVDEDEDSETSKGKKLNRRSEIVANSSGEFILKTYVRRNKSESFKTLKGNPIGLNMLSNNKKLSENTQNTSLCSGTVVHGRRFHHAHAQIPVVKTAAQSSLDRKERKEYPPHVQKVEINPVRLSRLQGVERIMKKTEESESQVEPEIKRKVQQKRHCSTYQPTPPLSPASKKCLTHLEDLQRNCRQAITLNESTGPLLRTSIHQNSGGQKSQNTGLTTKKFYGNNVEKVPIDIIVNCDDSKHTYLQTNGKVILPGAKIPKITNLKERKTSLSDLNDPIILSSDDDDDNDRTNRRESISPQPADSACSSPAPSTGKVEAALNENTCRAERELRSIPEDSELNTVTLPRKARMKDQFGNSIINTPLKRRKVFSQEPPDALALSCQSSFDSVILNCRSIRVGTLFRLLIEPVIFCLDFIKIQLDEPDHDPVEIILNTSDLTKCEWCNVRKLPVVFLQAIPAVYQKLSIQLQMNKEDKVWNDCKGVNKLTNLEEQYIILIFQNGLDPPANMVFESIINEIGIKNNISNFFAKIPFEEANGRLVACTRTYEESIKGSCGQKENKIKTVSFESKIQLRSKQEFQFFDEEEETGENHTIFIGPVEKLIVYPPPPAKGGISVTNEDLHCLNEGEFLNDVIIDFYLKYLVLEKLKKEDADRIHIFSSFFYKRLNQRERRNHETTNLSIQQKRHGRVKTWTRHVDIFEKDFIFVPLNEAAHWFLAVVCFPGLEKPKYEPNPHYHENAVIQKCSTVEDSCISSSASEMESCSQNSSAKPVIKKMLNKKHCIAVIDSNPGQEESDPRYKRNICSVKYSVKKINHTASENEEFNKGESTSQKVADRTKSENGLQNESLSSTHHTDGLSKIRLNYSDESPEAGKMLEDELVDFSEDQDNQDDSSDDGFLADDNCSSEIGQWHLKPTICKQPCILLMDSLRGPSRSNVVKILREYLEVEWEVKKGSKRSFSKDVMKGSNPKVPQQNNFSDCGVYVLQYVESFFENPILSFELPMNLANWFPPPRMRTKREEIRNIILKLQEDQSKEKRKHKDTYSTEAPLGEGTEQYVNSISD

[21] = biological target: T5, Sentrin-specific protease 7 (Homo sapiens, UniProt Q9BQF6); experiment: inhibition of human SENP7 cleavage activity – biochemical, luminescence, SAR follow-up (AID 504497); format: functional
T5 sequence (Q9BQF6 whole entry): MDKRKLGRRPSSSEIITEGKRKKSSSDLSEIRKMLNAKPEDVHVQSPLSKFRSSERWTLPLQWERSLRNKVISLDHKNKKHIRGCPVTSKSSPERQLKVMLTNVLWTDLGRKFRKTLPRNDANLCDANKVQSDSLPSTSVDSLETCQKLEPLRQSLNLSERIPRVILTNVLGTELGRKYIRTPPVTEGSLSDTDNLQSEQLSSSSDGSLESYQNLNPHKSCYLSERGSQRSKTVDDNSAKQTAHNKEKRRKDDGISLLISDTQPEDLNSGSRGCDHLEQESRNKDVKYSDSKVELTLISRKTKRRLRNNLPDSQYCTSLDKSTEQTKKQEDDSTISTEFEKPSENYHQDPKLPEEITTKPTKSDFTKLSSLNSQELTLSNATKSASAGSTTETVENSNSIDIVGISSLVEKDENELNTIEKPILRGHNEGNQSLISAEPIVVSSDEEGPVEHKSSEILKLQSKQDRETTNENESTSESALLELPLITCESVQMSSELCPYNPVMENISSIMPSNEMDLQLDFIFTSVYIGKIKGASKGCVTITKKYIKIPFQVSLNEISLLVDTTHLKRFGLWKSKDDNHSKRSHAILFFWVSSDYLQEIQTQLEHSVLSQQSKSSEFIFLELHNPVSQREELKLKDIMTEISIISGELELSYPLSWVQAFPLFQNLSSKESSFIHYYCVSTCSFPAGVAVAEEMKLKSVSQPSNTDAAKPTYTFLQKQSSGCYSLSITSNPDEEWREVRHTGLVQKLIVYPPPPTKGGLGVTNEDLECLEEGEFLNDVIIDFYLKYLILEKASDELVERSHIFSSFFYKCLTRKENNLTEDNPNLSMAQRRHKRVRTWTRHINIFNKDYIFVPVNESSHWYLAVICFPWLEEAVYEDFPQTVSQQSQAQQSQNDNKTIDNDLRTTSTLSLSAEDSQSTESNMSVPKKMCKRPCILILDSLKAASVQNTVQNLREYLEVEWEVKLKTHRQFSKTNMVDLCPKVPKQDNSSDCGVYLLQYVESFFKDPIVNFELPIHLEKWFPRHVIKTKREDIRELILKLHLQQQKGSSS

[22] = viability of uninfected HEp-2 cells – cell-based, HTS, cytotoxicity control for RSV inhibitor project, dose response (AID 2410); format: functional; details: human respiratory syncytial virus
[23] = biological target: Latent membrane protein 1 (Human herpesvirus 4 (strain B95-8), UniProt P03230); experiment: LMP1 TES1 pathway selectivity over dsRED control – imaging, HEK293T, dual-color eGFP/dsRED, cherry-picks, selectivity assay for LMP1 NF-kB inhibitor project, dose response (AID 588398); format: functional, cell-based
Sequence of Latent membrane protein 1 (P03230 whole entry): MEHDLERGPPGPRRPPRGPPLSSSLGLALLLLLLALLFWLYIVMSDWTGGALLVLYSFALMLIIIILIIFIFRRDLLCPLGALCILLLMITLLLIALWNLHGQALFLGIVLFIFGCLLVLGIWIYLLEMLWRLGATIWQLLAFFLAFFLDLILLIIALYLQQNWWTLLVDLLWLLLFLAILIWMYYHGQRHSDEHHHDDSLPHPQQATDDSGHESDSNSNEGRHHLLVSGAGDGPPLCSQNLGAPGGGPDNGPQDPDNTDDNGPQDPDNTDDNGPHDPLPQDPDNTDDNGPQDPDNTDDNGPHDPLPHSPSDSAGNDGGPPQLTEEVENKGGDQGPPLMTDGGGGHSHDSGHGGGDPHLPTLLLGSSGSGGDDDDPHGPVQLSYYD

T1 sequence (P08659 whole entry): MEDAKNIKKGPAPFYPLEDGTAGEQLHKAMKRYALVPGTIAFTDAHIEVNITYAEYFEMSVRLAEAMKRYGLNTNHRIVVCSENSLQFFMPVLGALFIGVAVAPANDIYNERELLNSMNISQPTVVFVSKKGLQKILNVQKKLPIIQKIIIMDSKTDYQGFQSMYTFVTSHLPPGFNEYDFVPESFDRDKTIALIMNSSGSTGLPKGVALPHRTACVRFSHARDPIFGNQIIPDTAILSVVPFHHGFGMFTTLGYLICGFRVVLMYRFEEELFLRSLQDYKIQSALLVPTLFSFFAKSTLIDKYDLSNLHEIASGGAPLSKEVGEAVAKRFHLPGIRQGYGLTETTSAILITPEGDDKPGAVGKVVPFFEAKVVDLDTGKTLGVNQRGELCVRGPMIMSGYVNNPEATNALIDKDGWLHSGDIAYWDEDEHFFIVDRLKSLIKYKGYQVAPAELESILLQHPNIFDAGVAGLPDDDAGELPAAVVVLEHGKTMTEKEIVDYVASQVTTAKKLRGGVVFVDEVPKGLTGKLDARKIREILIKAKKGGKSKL

CC(C)(C)c1ccc(-c2noc(CCC(N)=O)n2)cc1
active: EC50 [1] < 0.1 µM | EC50 [2] 0.47 µM | EC50 [3] 16.5 µM | EC50 (HEK293 [4]) 0.443 µM | EC50 (cells) 0.517 µM | EC50 [6] < 0.1 µM | EC50 [9] 0.203 µM | EC50 (HEK293 [10]) 0.528 µM | AC50 (HEK293 [12]) 0.401 µM | IC50 (Jurkat) 0.26 µM | IC50 (HEK293 [14]) 0.48 µM | AC50 [15] 0.344 µM | AC50 [16] < 0.26 µM | AC50 [17] < 0.26 µM | AC50 [18] < 0.26 µM
> 39.8 µM (not active): IC50 [7]
inactive: EC50 (HEK293 [8]) 14.9 µM | IC50 [11] > 80 µM | IC50 (HEK293 [13]) > 80 µM
> 8 µM (not active): EC50 [5]
> 50 µM (not active): EC50 (HT-1080)

CCc1cccc2c(C(=O)CN3C(=O)c4ccccc4S3(=O)=O)c[nH]c12
inactive: IC50 [19] > 99 µM | IC50 (Caspase-3) > 99 µM | IC50 [20] > 99 µM | IC50 [21] > 99 µM

CCn1c2ccccc2c2cc(/C=N/n3cnnc3)ccc21
active: CC50 [22] 18.2 µM | AC50 (HEK293 [12]) 11.5 µM | AC50 [23] 4.05 µM
